This passage reports % of control results from ChEMBL document CHEMBL5465560, “Selectivity Literature for EUbOPEN Chemogenomic Library” (2024).

Assay [1] deals with T1, Dual specificity mitogen-activated protein kinase kinase 6 (Homo sapiens) (UniProt P52564).
T1 sequence (whole entry): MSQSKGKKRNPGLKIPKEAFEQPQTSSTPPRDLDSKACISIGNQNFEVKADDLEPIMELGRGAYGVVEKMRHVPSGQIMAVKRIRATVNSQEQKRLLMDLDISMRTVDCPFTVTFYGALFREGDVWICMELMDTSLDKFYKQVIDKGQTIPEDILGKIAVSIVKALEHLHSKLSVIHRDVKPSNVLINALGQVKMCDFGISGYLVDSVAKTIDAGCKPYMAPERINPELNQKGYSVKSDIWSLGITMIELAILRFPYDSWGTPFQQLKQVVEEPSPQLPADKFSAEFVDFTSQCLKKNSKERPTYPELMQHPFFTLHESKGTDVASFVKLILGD
The assay is described as follows: Selectivity interaction (KinomeScan (DiscoverX)) EUB0001619a MAP2K6. Particulars: at 1 µM.

Assay [2] deals with Insulin-like growth factor 1 receptor (Homo sapiens, UniProt P08069). Description: Selectivity interaction (KinomeScan (DiscoverX)) EUB0001619a IGF1R. To be noted: at 1 µM.
Sequence of Insulin-like growth factor 1 receptor (P08069 31-736 limits assumed): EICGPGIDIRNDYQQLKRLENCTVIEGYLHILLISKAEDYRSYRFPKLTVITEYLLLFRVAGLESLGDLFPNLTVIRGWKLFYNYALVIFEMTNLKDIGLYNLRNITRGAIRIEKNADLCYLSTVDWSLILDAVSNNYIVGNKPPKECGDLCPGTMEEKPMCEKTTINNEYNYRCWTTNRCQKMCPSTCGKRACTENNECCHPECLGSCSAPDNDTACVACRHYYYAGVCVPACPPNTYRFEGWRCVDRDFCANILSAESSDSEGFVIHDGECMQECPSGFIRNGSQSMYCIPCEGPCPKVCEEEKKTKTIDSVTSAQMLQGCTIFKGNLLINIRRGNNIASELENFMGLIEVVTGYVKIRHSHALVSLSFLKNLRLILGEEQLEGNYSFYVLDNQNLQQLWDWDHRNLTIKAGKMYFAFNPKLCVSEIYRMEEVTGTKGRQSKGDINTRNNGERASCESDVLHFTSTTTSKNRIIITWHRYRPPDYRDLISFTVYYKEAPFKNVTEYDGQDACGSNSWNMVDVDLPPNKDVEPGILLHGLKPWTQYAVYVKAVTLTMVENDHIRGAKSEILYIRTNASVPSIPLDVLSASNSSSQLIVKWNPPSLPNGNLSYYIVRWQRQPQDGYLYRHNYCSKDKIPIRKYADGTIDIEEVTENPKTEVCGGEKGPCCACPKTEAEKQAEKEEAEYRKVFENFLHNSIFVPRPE
Sequence of Insulin-like growth factor 1 receptor (P08069 741-1367 limits assumed): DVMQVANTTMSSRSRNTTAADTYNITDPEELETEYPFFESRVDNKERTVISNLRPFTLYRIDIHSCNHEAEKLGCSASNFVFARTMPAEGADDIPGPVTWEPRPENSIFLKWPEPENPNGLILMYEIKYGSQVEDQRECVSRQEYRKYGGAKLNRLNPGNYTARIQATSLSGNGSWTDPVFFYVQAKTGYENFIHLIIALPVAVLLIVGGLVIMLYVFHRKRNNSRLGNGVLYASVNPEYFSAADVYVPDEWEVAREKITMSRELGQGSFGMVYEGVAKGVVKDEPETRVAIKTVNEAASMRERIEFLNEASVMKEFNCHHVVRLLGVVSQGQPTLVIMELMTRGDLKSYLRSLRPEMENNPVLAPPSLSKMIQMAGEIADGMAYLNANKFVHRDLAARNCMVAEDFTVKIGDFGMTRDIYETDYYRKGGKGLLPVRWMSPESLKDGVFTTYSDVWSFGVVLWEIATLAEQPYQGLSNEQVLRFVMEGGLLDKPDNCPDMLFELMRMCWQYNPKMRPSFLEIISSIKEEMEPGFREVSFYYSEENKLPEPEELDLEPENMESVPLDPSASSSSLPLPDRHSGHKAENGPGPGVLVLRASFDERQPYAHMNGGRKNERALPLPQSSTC
Assay [3] addresses T2, Myosin light chain kinase family member 4 (Homo sapiens) (UniProt Q86YV6).
T2 sequence (whole entry): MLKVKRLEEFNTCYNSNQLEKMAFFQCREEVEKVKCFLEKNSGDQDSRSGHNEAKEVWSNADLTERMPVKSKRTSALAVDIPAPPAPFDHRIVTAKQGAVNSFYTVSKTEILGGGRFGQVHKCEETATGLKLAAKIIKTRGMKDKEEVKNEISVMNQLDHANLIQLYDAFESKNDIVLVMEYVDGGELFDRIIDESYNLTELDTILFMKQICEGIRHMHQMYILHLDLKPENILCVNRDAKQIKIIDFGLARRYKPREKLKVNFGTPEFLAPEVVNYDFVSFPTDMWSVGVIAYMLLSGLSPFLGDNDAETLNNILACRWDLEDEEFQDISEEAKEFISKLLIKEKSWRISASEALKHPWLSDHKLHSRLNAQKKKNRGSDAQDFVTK
To be noted: at 10 µM.

Assay [4] addresses STE20-like serine/threonine-protein kinase (Homo sapiens, UniProt Q9H2G2). The assay is described as follows: Selectivity interaction (KinomeScan (DiscoverX)) EUB0000695a SLK. Particulars: at 100 nM.
Assay [5] has as its target T3, Serine/threonine-protein kinase TNNI3K (Homo sapiens) (UniProt Q59H18).
T3 sequence (whole entry): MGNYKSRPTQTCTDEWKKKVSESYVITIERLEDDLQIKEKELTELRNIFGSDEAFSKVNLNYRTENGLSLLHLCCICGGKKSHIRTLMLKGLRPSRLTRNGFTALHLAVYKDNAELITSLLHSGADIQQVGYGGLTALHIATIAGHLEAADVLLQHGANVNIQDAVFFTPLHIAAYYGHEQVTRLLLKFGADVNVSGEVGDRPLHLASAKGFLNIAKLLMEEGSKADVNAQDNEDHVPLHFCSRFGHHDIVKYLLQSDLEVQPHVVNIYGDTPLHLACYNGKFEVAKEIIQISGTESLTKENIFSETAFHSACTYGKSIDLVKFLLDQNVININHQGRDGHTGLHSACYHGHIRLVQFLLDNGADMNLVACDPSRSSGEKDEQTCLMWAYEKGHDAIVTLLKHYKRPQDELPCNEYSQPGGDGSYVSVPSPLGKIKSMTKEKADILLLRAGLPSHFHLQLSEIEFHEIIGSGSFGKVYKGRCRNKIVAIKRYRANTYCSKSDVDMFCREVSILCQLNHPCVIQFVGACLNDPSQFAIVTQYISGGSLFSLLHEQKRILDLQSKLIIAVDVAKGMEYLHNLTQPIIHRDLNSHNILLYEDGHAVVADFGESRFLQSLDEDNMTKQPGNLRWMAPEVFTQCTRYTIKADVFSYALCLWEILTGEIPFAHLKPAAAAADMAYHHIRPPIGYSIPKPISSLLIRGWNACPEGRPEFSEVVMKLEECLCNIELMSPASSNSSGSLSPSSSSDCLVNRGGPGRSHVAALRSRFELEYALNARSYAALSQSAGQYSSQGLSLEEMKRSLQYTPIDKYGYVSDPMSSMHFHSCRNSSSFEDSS
Particulars: at 10 µM.

Assay [6] addresses RAC-beta serine/threonine-protein kinase (Homo sapiens) (UniProt P31751). The assay is described as follows: Selectivity interaction (KinomeScan (DiscoverX)) EUB0000655a AKT2. To be noted: at 10 µM.
Assay [7] concerns the target Tyrosine-protein kinase receptor UFO (Homo sapiens) (UniProt P30530). The assay is described as follows: Selectivity interaction (KinomeScan (DiscoverX)) EUB0000618a AXL. To be noted: at 10 µM.
The target in assay [8] is Dual specificity protein kinase CLK4 (Homo sapiens, UniProt Q9HAZ1). Description: Selectivity interaction (KinomeScan (DiscoverX)) EUB0000618a CLK4. Particulars: at 10 µM.
Sequence of Dual specificity protein kinase CLK4 (Q9HAZ1 whole entry, looked up): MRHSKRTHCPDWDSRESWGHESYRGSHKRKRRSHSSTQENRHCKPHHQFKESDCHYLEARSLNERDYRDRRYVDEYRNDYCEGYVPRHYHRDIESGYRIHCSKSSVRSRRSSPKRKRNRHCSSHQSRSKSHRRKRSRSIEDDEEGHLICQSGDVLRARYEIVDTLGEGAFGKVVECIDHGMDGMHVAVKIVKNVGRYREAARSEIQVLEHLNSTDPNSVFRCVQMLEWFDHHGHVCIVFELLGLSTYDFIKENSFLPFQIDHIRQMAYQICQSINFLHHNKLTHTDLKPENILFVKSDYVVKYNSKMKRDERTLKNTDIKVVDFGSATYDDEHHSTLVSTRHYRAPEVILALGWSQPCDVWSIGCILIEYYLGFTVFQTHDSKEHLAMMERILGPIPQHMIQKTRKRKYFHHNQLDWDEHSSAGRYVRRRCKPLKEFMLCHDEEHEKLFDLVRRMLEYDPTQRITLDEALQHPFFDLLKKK
Assay [9] concerns the target MAP kinase-interacting serine/threonine-protein kinase 2 (Homo sapiens, UniProt Q9HBH9). Description: Selectivity interaction (KinomeScan (DiscoverX)) EUB0001079a MKNK2. To be noted: at 1 µM.
The target of assay [10] is Phosphorylase b kinase gamma catalytic chain, skeletal muscle/heart isoform (Homo sapiens) (UniProt Q16816). Description: Selectivity interaction (KinomeScan (DiscoverX)) EUB0001079a PHKG1. Particulars: at 1 µM.
Sequence of Phosphorylase b kinase gamma catalytic chain, skeletal muscle/heart isoform (Homo sapiens) (Q16816 whole entry, looked up, canonical isoform): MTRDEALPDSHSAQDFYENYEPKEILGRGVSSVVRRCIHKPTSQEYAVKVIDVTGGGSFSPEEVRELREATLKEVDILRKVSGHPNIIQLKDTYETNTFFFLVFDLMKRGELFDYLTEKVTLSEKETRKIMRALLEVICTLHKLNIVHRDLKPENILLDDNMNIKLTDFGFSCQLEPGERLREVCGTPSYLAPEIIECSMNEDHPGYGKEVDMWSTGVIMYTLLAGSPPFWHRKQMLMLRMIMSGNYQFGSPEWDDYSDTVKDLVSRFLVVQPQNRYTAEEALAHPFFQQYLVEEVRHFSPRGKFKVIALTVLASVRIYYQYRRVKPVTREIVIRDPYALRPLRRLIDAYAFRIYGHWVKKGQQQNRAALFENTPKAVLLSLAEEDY

Sequence of RAC-beta serine/threonine-protein kinase (Homo sapiens) (P31751 whole entry): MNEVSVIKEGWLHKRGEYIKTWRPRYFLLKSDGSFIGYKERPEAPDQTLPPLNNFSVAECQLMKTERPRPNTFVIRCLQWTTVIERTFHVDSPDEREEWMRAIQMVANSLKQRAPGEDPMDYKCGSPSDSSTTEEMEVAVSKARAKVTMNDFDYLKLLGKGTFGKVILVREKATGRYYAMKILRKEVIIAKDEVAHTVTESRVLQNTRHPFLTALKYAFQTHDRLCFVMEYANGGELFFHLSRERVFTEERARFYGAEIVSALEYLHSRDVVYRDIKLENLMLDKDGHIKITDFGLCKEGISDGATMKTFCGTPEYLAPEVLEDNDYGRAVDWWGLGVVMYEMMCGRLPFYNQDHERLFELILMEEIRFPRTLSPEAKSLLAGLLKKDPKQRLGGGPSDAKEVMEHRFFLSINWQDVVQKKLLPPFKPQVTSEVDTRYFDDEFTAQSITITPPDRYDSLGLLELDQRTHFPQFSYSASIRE
Sequence of MAP kinase-interacting serine/threonine-protein kinase 2 (Q9HBH9 whole entry, looked up, canonical isoform): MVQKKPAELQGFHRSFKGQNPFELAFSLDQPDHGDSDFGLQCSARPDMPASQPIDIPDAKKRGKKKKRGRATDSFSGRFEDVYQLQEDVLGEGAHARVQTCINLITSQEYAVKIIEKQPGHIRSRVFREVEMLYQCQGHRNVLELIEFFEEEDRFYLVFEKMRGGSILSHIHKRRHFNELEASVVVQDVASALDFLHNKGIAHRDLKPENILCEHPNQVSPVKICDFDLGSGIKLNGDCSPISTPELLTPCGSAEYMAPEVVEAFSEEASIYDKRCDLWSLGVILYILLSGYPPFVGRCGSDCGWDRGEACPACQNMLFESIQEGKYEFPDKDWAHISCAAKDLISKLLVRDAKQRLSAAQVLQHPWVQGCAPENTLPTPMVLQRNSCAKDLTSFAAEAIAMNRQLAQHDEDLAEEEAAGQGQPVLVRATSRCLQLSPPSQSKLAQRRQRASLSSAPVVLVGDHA
Sequence of Tyrosine-protein kinase receptor UFO (Homo sapiens) (P30530 whole entry): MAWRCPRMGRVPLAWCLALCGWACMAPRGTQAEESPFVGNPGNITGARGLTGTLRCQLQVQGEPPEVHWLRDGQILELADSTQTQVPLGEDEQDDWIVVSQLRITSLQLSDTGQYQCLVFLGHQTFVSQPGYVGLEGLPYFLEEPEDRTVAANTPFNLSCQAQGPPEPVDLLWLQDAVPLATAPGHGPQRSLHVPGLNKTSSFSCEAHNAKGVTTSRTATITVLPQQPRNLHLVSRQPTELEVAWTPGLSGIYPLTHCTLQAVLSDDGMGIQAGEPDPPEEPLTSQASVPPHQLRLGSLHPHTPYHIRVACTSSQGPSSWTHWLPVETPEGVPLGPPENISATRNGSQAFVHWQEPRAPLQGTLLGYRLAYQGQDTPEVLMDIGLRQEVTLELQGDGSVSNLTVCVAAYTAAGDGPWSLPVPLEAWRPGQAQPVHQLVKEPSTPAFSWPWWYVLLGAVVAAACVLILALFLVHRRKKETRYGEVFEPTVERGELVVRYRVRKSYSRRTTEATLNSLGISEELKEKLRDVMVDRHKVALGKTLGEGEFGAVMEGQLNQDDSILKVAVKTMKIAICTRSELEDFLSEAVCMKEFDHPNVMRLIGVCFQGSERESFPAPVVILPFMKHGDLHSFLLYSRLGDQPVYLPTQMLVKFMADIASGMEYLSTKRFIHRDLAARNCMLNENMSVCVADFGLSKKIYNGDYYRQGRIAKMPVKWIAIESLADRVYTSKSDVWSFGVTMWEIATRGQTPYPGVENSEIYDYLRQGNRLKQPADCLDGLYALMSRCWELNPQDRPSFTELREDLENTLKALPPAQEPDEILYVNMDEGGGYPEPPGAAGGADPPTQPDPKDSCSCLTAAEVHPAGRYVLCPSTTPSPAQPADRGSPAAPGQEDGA

With `N#Cc1cccc(-c2c[nH]c3ncnc(N4CCOCC4)c23)c1`, the % of control in [1] is 80%; in assay [2], 87%.
For `CCN(CC)CCCCNc1ncc2cc(-c3cc(OC)cc(OC)c3)c(NC(=O)NC(C)(C)C)nc2n1`, in assay [3], the % of control came out at 100%.
`Cc1cc(F)c(C(=O)Nc2cccc(-c3nncn3C(C)C)n2)cc1-n1cnc(C2CC2)c1`: in [4], the % of control turned out to be 77%.
`Cc1cc([C@@H](C)Nc2ccccc2C(=O)O)c2nc(N3CCOCC3)cc(=O)n2c1` [AZD-6482]: the % of control in assay [5] was 88%.
In assay [6], `CN(C)CCOc1ccc(-c2nc(-c3ccncc3)c(-c3ccc4c(c3)CC/C4=N\O)[nH]2)cc1` showed a % of control of 100%.
As for `O[C@H]1CC[C@H](Nc2ncc3nc(Nc4c(F)cc(F)cc4F)n([C@H]4CCOC4)c3n2)CC1`, the % of control came out at 86% in [7] and 100% in assay [8].
`Nc1cnc(N2CCc3cc(S(=O)(=O)Nc4c(F)cc(Cl)cc4F)cc(N4CCCC4=O)c32)nc1` [TP-020n]: the results for the % of control in assay [9] and in assay [10] were 100% and 71%, respectively.
